Test results reported in patent US20100029619A1, “FUSED HETEROCYCLIC COMPOUND” (TAKEDA PHARMACEUTICAL COMPANY LIMTED, priority 2006, published 2010).

| Compound | melting point [°C] |
| --- | --- |
| CC(C)(C)c1ccc(C(=O)Nc2cn3cc(C(F)(F)F)ccc3n2)cc1 [Example 452, 4-tert-butyl-N-[6-(trifluoromethyl)imidazo[1,2-a]pyridin-2-yl]benzamide] | 234 to 235 |
| CC(C)(C(=O)NCC(O)CO)c1ccc(C(=O)Nc2cn3cc(Cl)ccc3n2)cc1 (stereo not drawn) [Example 454, N-(6-chloroimidazo[1,2-a]pyridin-2-yl)-4-{2-[(2,3-dihydroxypropyl)amino]-1,1-dimethyl-2-oxoethyl}benzamide] | 198 to 199 |
| CC(C)(C#N)c1ccc(C(=O)Nc2cn3cc(C(F)(F)F)ccc3n2)cc1 [Example 455, 4-(1-cyano-1-methylethyl)-N-[6-(trifluoromethyl)imidazo[1,2-a]pyridin-2-yl]benzamide] | 230 to 231 |
| CC(C)(CNC(=O)c1c[nH]cn1)c1ccc(C(=O)Nc2cn3cc(C(F)(F)F)ccc3n2)cc1 [Example 456, N-[2-methyl-2-(4-{[6-(trifluoromethyl)imidazo[1,2-a]pyridin-2-yl]carbamoyl}phenyl)propyl]-1H-imidazole-4(5)-carboxamide] | 174 to 176 |
| CC(C)(CNC(=O)c1ncc[nH]1)c1ccc(C(=O)Nc2cn3cc(C(F)(F)F)ccc3n2)cc1 [Example 457, N-[2-methyl-2-(4-{[6-(trifluoromethyl)imidazo[1,2-a]pyridin-2-yl]carbamoyl}phenyl)propyl]-1H-imidazole-2-carboxamide] | 292 to 293 |
| CC(C)(CNC(=O)Cc1cnc[nH]1)c1ccc(C(=O)Nc2cn3cc(C(F)(F)F)ccc3n2)cc1 [Example 458, 4-{2-[(1H-imidazol-5-ylacetyl)amino]-1,1-dimethylethyl}-N-[6-(trifluoromethyl)imidazo[1,2-a]pyridin-2-yl]benzamide] | 261 to 263 |
| CC(C)(CCO)c1ccc(C(=O)Nc2cn3cc(C(F)(F)F)ccc3n2)cc1 [Example 459, 4-(3-hydroxy-1,1-dimethylpropyl)-N-[6-(trifluoromethyl)imidazo[1,2-a]pyridin-2-yl]benzamide] | 152 to 153 |
| CC(C)(CO)c1ccc(C(=O)Nc2cn3cc(C(F)(F)F)ccc3n2)cc1 [Example 461, 4-(2-hydroxy-1,1-dimethylethyl)-N-[6-(trifluoromethyl)imidazo[1,2-a]pyridin-2-yl]benzamide] | 227 to 229 |
| Cn1cc(-c2ccc3nc(NC(=O)c4ccc(C(C)(C)CO)cc4)cn3c2)cn1 [Example 462, 4-(2-hydroxy-1,1-dimethylethyl)-N-[6-(1-methyl-1H-pyrazol-4-yl)imidazo[1,2-a]pyridin-2-yl]benzamide] | 275 to 277 |
| CC(C)(CO)c1ccc(C(=O)Nc2cn3cc(-c4cn[nH]c4)ccc3n2)cc1 [Example 464, 4-(2-hydroxy-1,1-dimethylethyl)-N-[6-(1H-pyrazol-4-yl)imidazo[1,2-a]pyridin-2-yl]benzamide] | 293 to 296 |

The next lines start with the values.

| melting point [°C] | Compound |
| --- | --- |
| 246 to 248 | CC(C)(CO)c1ccc(C(=O)Nc2cn3cc(-c4ccoc4)ccc3n2)cc1 [Example 465, N-[6-(3-furyl)imidazo[1,2-a]pyridin-2-yl]-4-(2-hydroxy-1,1-dimethylethyl)benzamide] |
| 250 to 252 | CC(C)(CO)c1ccc(C(=O)Nc2cn3cc(-c4ccsc4)ccc3n2)cc1 [Example 466, 4-(2-hydroxy-1,1-dimethylethyl)-N-[6-(3-thienyl)imidazo[1,2-a]pyridin-2-yl]benzamide] |
| 182 to 184 | CC(C)(CCO)c1ccc(C(=O)Nc2cn3cc(Cl)ccc3n2)cc1 [Example 467, N-(6-chloroimidazo[1,2-a]pyridin-2-yl)-4-(3-hydroxy-1,1-dimethylpropyl)benzamide] |
| 225 to 227 | CC(C)(CCO)c1ccc(C(=O)Nc2cn3cc(-n4ccnc4)ccc3n2)cc1 [Example 468, 4-(3-hydroxy-1,1-dimethylpropyl)-N-[6-(1H-imidazol-1-yl)imidazo[1,2-a]pyridin-2-yl]benzamide] |
| 274 to 276 | CC(C)(C)c1ccc(C(=O)Nc2cn3cc(-n4cncn4)ccc3n2)cc1 [Example 469, 4-tert-butyl-N-[6-(1H-1,2,4-triazol-1-yl)imidazo[1,2-a]pyridin-2-yl]benzamide] |
